Measured values taken from US20220213047A1, “CARBONIC ANHYDRASE INHIBITORS FOR TREATMENT OF NEISSERIA GONORRHOEAE INFECTION” (Purdue Research Foundation, priority 2021, published 2022).
≈ marks a conversion by molar mass, not a printed value.

Tests used:
S. aureus = assay: MIC50 against pathogenic and commensal bacteria: S. aureus; format: cell-based; details: Staphylococcus aureus; S. aureus (12 strains); normal
Excerpt: (§1) We have shown that CAIs display a narrow-spectrum of activity (Table 6). We have previously shown that CAIs have potential as anti-enterococcal agents for decolonization of the gut and treating systemic vancomycin-resistant enterococci (VRE) infections without affecting commensal strains common in the human microbiome or other pathogenic bacteria. […] The extremely narrow spectrum of this class of inhibitors would be a positive for clinical use as the molecules: 1) would not have deleterious effects on normal microbiota, and 2) would have less opportunity for resistance to arise to other important pathogenic strains aside from VRE.

L. johnsonii = assay: MIC50 against pathogenic and commensal bacteria: L. johnsonii; format: cell-based; details: Lactobacillus johnsonii; L. johnsonii (1 strain); normal
Excerpt: as §1

N. gonorrhoeae = assay: Multi-step resistance selection; format: cell-based; details: over ten passages
Excerpt: Frequency of mutation—multi-step mutation—We investigated N. gonorrhoeae's ability to develop resistance to CAIs using the multi-step resistance selection experiment^58.
N. gonorrhoeae cultures that grew at the highest concentrations of the compound are used as an inoculum for the subsequent culture.

ATCC strain 700825 = assay: MICs against ATCC strain 700825; format: cell-based, N. gonorrhoeae; details: Neisseria gonorrhoeae
Method: These tests were performed in normal culture conditions with standard CO2 levels and in CO2 (5% in incubator) conditions.

Lactobacillus sp = assay: MIC50 against pathogenic and commensal bacteria: Lactobacillus sp; format: cell-based; details: Lactobacillus sp (12 strains); normal
Excerpt: as §1

L. gasseri = assay: MIC50 against pathogenic and commensal bacteria: L. gasseri; format: cell-based; details: Lactobacillus gasseri; L. gasseri (4 strains); normal
Excerpt: as §1

Klebsiella spp. = assay: MIC50 against pathogenic and commensal bacteria: Klebsiella spp.; format: cell-based; details: Klebsiella spp. (4 strains); normal
Excerpt: as §1

S. epidermidis = assay: MIC50 against pathogenic and commensal bacteria: S. epidermidis; format: cell-based; details: Staphylococcus epidermidis; S. epidermidis (3 strains); normal
Excerpt: as §1

L. crispatus = assay: MIC50 against pathogenic and commensal bacteria: L. crispatus; format: cell-based; details: Lactobacillus crispatus; L. crispatus (2 strains); normal
Excerpt: as §1

SMILES: CCOc1ccc2nc(S(N)(=O)=O)sc2c1 [Ethoxzolamide]
- MIC50 (S. aureus): > 256 µg/mL
- MIC50 (L. johnsonii): > 256 µg/mL
- increase in MIC (N. gonorrhoeae): no increase
- MIC (ATCC strain 700825; ATCC700825, In CO2): 64 µg/mL (≈ 248 µM)
- MIC (ATCC strain 700825; ATCC700825, In air): 0.5 µg/mL (≈ 1.94 µM)
- MIC50 (Lactobacillus sp): > 256 µg/mL
- MIC50 (L. gasseri): > 256 µg/mL
- MIC50 (Klebsiella spp.): > 256 µg/mL
- MIC50 (S. epidermidis): > 256 µg/mL
- MIC50 (L. crispatus): > 256 µg/mL
